Where two headings read alike, the source gives them in different places.
Experiments:
L858R mutant EGFR = molecular target: T1, L858R mutant EGFR (Homo sapiens, UniProt P00533, L858R); assay: HTRF-based EGFR biochemical assay; details: relative to L858R/T790M and T790M mutants
T1 construct: Constructs spanning residues 696-1022 of the human EGFR; GST (cleaved yes); made in house; host or cells: Sf9 insect cells
Protocol: EGFR biochemical assays are carried out using a homogeneous time-resolved fluorescence (HTRF) assay. The reaction mixtures contain biotin-Lck-peptide substrate, wild type, or mutant EGFR enzyme in reaction buffer. Enzyme concentrations are adjusted to accommodate varying kinase activity and ATP concentrations. Compounds of the present disclosure are diluted into the assay mixture and IC50 values are determined using 12-point inhibition curves.
Constructs spanning residues 696-1022 of the human EGFR (including wild type and L858R, L858R/T790M, T790M, and T790M/V948R mutant sequences) were prepared in a GST-fusion format using the pTriEX system (Novagen) for expression in Sf9 insect cells essentially as described. […]
EGFR biochemical assays were carried out using a homogeneous time-resolved fluorescence (HTRF) assay as described previously. […] Five μL per well of the detection reagent containing 2.5 ng PT66K (Cis-bio) and 0.05 μg SAXL (Prozyme) were added, and the plates were then incubated at room temperature for 1 hour and read with an EnVision plate reader.

[1] = molecular target: EGFR T790M/L858R Ba/F3 cell line (Homo sapiens, UniProt P00533, T790M/L858R, cells depend on it); assay: Ba/F3 cell proliferation model; assay type: cell-based, murine; details: for Activity (% inhibition): combined with cetuximab (% cetuximab, 1.0 μM drug concentration with 1.0 μg/mL cetuximab)
EGFR T790M/L858R Ba/F3 cell line, sequence (P00533 whole entry T790M/L858R): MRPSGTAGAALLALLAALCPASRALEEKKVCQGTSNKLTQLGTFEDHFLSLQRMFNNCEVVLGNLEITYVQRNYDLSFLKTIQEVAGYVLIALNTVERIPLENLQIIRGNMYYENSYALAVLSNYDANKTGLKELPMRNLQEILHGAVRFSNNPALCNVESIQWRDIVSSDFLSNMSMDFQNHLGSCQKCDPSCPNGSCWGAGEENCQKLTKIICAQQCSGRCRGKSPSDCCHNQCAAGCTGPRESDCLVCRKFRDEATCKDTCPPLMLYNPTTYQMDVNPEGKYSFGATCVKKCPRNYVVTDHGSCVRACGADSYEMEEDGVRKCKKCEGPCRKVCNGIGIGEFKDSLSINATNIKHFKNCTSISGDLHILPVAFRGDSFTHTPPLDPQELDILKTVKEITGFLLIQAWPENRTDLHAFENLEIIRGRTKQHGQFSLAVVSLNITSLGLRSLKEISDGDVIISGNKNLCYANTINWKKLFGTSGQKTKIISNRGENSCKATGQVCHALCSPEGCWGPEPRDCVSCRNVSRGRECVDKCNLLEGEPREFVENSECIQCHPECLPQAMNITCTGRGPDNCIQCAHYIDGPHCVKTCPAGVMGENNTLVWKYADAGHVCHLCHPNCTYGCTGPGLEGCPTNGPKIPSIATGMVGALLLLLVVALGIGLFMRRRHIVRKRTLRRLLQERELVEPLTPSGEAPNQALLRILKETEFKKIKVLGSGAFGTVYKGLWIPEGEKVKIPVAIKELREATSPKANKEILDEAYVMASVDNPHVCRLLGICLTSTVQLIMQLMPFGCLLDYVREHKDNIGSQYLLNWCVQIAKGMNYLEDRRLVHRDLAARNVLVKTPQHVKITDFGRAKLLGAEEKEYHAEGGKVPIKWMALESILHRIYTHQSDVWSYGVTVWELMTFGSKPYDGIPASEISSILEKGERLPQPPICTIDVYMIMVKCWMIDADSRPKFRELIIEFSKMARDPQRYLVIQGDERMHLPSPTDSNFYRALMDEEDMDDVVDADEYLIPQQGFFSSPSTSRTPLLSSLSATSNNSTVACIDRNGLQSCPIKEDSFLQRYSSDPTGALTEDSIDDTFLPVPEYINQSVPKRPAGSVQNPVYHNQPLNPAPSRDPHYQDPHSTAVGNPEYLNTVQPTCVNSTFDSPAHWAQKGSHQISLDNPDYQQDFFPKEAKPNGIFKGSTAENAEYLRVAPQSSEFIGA
In short: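 Murine Ba/F3 cells made IL-3-independent by retroviral EGFR L858R/T790M, selected in puromycin (2 μg/ml) and kept in RPMI 1640 with 10% FBS. Cells were exposed to serially diluted compound for 72 h, with growth read by MTS assay in six wells per point and ≥3 repeats. Sigmoidal dose-response non-linear regression gave the values.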

[2] = molecular target: Del/T790M Ba/F3 cell line (Homo sapiens, UniProt P00533, DEL746-750/T790M, cells depend on it); assay: Ba/F3 cell proliferation model; assay type: cell-based, murine
Del/T790M Ba/F3 cell line, sequence (P00533 with tags, fused parts or gaps DEL746-750/T790M): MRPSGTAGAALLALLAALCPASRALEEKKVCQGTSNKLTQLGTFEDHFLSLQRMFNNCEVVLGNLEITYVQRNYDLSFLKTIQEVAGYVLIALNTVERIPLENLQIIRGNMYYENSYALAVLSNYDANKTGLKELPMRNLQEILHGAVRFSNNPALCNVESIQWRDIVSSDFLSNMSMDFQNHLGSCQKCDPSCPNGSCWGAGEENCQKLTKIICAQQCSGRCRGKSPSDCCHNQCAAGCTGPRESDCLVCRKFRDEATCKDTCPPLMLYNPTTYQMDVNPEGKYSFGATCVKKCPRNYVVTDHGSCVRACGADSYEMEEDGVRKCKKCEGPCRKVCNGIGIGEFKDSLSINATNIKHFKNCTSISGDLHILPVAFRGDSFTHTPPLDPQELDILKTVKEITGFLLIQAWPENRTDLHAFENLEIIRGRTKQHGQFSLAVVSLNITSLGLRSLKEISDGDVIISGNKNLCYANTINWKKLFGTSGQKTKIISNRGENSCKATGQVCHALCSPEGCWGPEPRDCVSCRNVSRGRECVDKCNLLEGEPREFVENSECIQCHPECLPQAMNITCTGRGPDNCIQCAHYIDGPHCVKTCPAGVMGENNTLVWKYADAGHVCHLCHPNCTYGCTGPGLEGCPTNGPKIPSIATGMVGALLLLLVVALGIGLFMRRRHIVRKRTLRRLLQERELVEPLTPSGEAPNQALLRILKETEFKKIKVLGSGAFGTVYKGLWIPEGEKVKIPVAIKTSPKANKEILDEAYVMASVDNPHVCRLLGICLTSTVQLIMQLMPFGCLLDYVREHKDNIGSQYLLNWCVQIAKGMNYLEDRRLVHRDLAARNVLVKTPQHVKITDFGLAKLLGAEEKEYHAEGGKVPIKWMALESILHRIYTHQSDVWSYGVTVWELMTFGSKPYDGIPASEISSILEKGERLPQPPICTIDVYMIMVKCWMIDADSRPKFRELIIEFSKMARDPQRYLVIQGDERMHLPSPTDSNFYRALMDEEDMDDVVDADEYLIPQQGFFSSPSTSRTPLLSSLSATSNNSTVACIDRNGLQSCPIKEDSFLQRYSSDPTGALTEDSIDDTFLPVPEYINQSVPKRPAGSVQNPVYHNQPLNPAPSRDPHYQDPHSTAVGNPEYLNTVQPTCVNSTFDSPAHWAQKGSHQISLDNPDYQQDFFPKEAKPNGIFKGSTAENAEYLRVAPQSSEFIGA
Description: (§1) The selectivity between wild-type EGFR and EGFR containing one or more mutations as described herein can also be measured using cellular proliferation assays where cell proliferation is dependent on kinase activity. For example, murine Ba/F3 cells transfected with a suitable version of wild-type EGFR (such as VIII; containing a WT EGFR kinase domain), or Ba/F3 cells transfected with L858R/T790M, Del/T790M/L718Q, L858R/T790M/L718Q, L858R/T790M/C797S, Del/T790M/C797S, L858R/T790M/I941R, or Exon 19 deletion/T790M can be used.
(§2) Cell lines are plated in media. The compounds of the present disclosure are then serially diluted and transferred to the cells. Cell viability is measured via a luminescent readout. Data is analyzed by non-linear regression curve-fitting.
(§3) The EGFR mutant L858R, Del E746_A750, L858R/T790M, DelE746_A750/T790M, L858R/T790M/C797S and Del/T790M/C797S Ba/F3 cells have been previously described (Zhou, W., Ercan, D., Chen, L., Yun, C. H., Li, D., Capelletti, M., Cortot, A. B., Chirieac, L., Iacob, R. E., Padera, R., et al. “Novel mutant-selective EGFR kinase inhibitors against EGFR T790M,” Nature 462, (2009), 1070-1074). All cell lines were maintained in RPMI 1640 (Cellgro; Mediatech Inc., Herndon, Calif.) supplemented with 10% FBS 100 units/mL penicillin, 100 units/mL streptomycin, and 2 mM glutamine. L858R cells were maintained in ACL-4 media (Invitrogen, Carlsbad, Calif.) supplemented with 5% FBS, 100 units/mL penicillin, 100 units/mL streptomycin, and 2 mM glutamine. The EGFR I941R mutation was introduced via site directed mutagenesis using the Quick Change Site-Directed Mutagenesis kit (Stratagene; La Jolla, Calif.) according to the manufacturer's instructions. All constructs were confirmed by DNA sequencing. The constructs were shuttled into the retroviral vector JP 1540 using the BD Creator™ System (BD Biosciences). Ba/F3 cells were infected with retrovirus and according to standard protocols, as described previously (Zhou et al, Nature 2009). Stable clones were obtained by selection in puromycin (2 μg/ml).
(§4) Growth and inhibition of growth was assessed by MTS assay and was performed according to previously established methods (Zhou et al., Nature 2009). The MTS assay is a colorimetric method for determining the number of viable cells that is based on the bioreduction of MTS by cells to a formazan product that is soluble in cell culture medium and can be detected spectrophotometrically. Ba/F3 cells of different EGFR genotypes were exposed to treatment for 72 hours and the number of cells used per experiment determined empirically and has been previously established (Zhou et al., Nature 2009). All experimental points were set up in six wells and all experiments were repeated at least three times. […] The curves were fitted using a non-linear regression model with a sigmoidal dose response.

[3] = tested on: EGFR Parental Ba/F3 cell line; assay: Ba/F3 cell proliferation model; assay type: cell-based, murine; details: Mus musculus, BaF3; compound alone
Description: as §1, §2, §3, §4

[4] = compound alone, read-out: L858R/T790M IC50
[5] = read-out: L858R/T790M Cetuximab IC50, in combination with Cetuximab
[6] = compound alone, read-out: Del/T790M IC50
[7] = read-out: Del/T790M Cetuximab IC50, in combination with Cetuximab

T1 sequence (P00533 696-1022 L858R): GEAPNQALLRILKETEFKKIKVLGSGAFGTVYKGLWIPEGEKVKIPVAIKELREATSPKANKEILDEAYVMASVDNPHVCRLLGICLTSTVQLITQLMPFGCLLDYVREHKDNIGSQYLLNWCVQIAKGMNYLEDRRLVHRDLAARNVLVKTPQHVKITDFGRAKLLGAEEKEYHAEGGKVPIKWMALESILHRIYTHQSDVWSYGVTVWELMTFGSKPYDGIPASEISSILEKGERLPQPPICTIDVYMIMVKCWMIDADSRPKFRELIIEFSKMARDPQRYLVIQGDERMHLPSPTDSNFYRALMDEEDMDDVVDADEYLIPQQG

SMILES	decreased potency against L858R mutant EGFR (L858R mutant EGFR)	GI50 [1, 4]	GI50 [1, 5]	GI50 [2, 6]	GI50 [2, 7]	Activity (% inhibition) [1]	IC50 [3]
O=C(Nc1nccs1)C(c1ccccc1)N1Cc2ccccc2C1=O (stereo not shown) [Compound A1]	approximately 2 fold						
O=C(Nc1nccs1)[C@@H](c1ccccc1)N1Cc2ccc(-c3cnc4ccccc4c3)cc2C1=O [Compound I-70, (R)-2-(1-oxo-6-(quinolin-3-yl)isoindolin-2-yl)-2-phenyl-N-(thiazol-2-yl)acetamide]		> 10 µM	< 0.5 µM	> 10 µM	> 10 µM	D (a % inhibition of between about 0% to about 25%)	> 10 µM
COc1cc(OC)cc(-c2ccc3c(c2)C(=O)N([C@@H](C(=O)Nc2nccs2)c2ccccc2)C3)c1 [Compound I-79, (R)-2-(6-(3,5-dimethoxyphenyl)-1-oxoisoindolin-2-yl)-2-phenyl-N-(thiazol-2-yl)acetamide]		> 10 µM	< 0.5 µM	> 10 µM	> 10 µM	D (a % inhibition of between about 0% to about 25%)	> 10 µM

Further lines, with some results ahead:

decreased potency against L858R mutant EGFR (L858R mutant EGFR)	GI50 [1, 4]	GI50 [1, 5]	GI50 [2, 6]	GI50 [2, 7]	SMILES	Activity (% inhibition) [1]	IC50 [3]
	1 to 10 µM	< 0.5 µM	1 to 10 µM	1 to 10 µM	O=C(Nc1nccs1)[C@H](c1ccccc1)N1Cc2ccc(-c3ccc(N4CCNCC4)cc3)cc2C1=O [Compound I-115, (S)-2-(1-oxo-6-(4-(piperazin-1-yl)phenyl)isoindolin-2-yl)-2-phenyl-N-(thiazol-2-yl)acetamide]	D (a % inhibition of between about 0% to about 25%)	1 to 10 µM
	1 to 10 µM	< 0.5 µM	1 to 10 µM	1 to 10 µM	O=C(Nc1nccs1)[C@@H](c1ccccc1)N1Cc2ccc(-c3ccc(N4CCNCC4)cc3F)cc2C1=O [Compound I-120, (R)-2-(6-(2-fluoro-4-(piperazin-1-yl)phenyl)-1-oxoisoindolin-2-yl)-2-phenyl-N-(thiazol-2-yl)acetamide]	D (a % inhibition of between about 0% to about 25%)	1 to 10 µM
	1 to 10 µM	< 0.5 µM	1 to 10 µM	1 to 10 µM	CN1CCN(c2ccc(-c3ccc4c(c3)C(=O)N([C@@H](C(=O)Nc3nccs3)c3ccccc3)C4)cc2)CC1 [Compound I-69, (R)-2-(6-(4-(4-methylpiperazin-1-yl)phenyl)-1-oxoisoindolin-2-yl)-2-phenyl-N-(thiazol-2-yl) acetamide]	D (a % inhibition of between about 0% to about 25%)	1 to 10 µM
	1 to 10 µM	< 0.5 µM	1 to 10 µM	1 to 10 µM	O=C(Nc1nccs1)[C@@H](c1ccccc1)N1Cc2ccc(-c3ccc(N4CCNCC4)cc3)cc2C1=O [Compound I-68, (R)-2-(1-oxo-6-(4-(piperazin-1-yl)phenyl)isoindolin-2-yl)-2-phenyl-N-(thiazol-2-yl)acetamide]	D (a % inhibition of between about 0% to about 25%)	1 to 10 µM
